The values below come from patent US10300020B2 (West-Ward Pharmaceuticals International Limited, priority 2005, dated 2019).

Structures are written as SMILES.

The conditions of the data set: calcium acetate used in Example 1. From the text:
In another preferred embodiment, the bulk density is between about 0.30 g/cc to about less than 0.55 g/cc. More preferably the bulk density is between about 0.30 g/cc to about 0.45 g/cc.

`CC(=O)[O-].CC(=O)[O-].[Ca+2]` [calcium acetate]: the bulk density is recorded as 0.47 g/cc.
